Experimental data published in patent US8148424B2, “Tocopherols, tocotrienols, other chroman and side chain derivatives and uses thereof” (Research Development Foundation, priority 1998, dated 2012).
Values after ≈ are worked out from the molar mass of the structure shown. Like-named read-outs stand apart in the source and are kept apart here.

Legend:
MDA-MB-231 = assay: Bioassay for apoptosis (apoptotic EC50); assay type: cell-based, human; details: for EC50: Homo sapiens, MDA-MB-231, MDA-MB-231, unit inferred
Method: (§1) Cells were cultured at 1.5×10^5 cells/well in 12 well plates. Cells were allowed to adhere overnight, then incubated with novel test compounds at 0.01, 0.1, 1, 5, 10 & 20 μg/mL for 1, 2 and 3 days. After treatment, cells (floating+trypsin released adherent cells) were pelleted, washed and stained with 2 μg/ml DAPI (4′,6-diamidine-2′-phenylindole dihydrochloride) in 100% methanol for 15 minutes at 37° C. and/or 3′-OH ends resulting from DNA fragmentation were detected with the TUNEL (terminal deoxynucleotidyl transferase-mediated dUTP-X 3′ nick end-labeling) technique, and then viewed using a Zeiss ICM 405 microscope. Cells whose nucleus contained clearly condensed or fragmented chromatin or stained for fragmented DNA in the TUNEL assay were scored as apoptotic. Data are presented as percent cells undergoing apoptosis.

MDA-MB-435 = assay: Bioassay for apoptosis (apoptotic EC50); assay type: cell-based, human; details: for apoptotic EC50: unit not given, in µg/mL
Method: as §1

PC-3 = assay: Bioassay for apoptosis (apoptotic EC50); assay type: cell-based, human; details: for EC50: Homo sapiens, PC-3, PC-3, unit inferred
Method: as §1

LnCaP = assay: Bioassay for apoptosis (apoptotic EC50); assay type: cell-based, human; details: for EC50: Homo sapiens, unit inferred; for apoptotic EC50: unit not given, in µg/mL
Method: as §1

RL-95-2 = assay: Bioassay for apoptosis (apoptotic EC50); assay type: cell-based, human; details: for EC50: Homo sapiens, RL95-2, RL-95-2, unit inferred
Method: as §1

HL-60 = assay: Bioassay for apoptosis (apoptotic EC50); assay type: cell-based, human; details: for EC50: Homo sapiens, HL-60, HL-60, unit inferred; for apoptotic EC50: HL-60, unit not given, in µg/mL
Method: as §1

ME-180 = assay: Bioassay for apoptosis (apoptotic EC50); assay type: cell-based, human; details: for EC50: Homo sapiens, ME-180, ME-180, unit inferred; for apoptotic EC50: ME-180, unit not given, in µg/mL
Method: as §1

MCF-7 = assay: Bioassay for apoptosis (apoptotic EC50); assay type: cell-based, human; details: for EC50: Homo sapiens, MCF7, MCF-7, unit inferred; for apoptotic EC50: MCF-7, unit not given, in µg/mL
Method: as §1

C-170 = assay: Bioassay for apoptosis (apoptotic EC50); assay type: cell-based, human; details: for EC50: Homo sapiens, C170, C-170, unit inferred; for apoptotic EC50: C-170, unit not given, in µg/mL
Method: as §1

HMEC = assay: Bioassay for apoptosis (apoptotic EC50); assay type: cell-based; details: Homo sapiens, unit inferred
Method: as §1

MCF-10A = assay: Bioassay for apoptosis (apoptotic EC50); assay type: cell-based; details: Homo sapiens, unit inferred
Method: as §1

[1] = tested on: breast tumor cell line MDA-MB-435; assay: Bioassay for DNA synthesis arrest, naturally occurring vitamin E compounds; assay type: cell-based, human; details: Table 1
Method: Table 1 provides tumor growth inhibitory properties of naturally occurring vitamin E compounds against the breast tumor cell line MDA-MB-435.
To assay DNA synthesis, all cells were used at 2.5×10^5/ml. Cells were treated with each of the compounds at concentrations of 0.01, 0.1, 1, 5, 10 and 20 μg/mL and 200 μl of each treatment group were plated in quadruplicate in a 96 well culture plate (Corning, Corning N.Y.). Experiments were done in duplicate, one plate used for viability testing and the other plate for examination of ^3H-TdR uptake to monitor DNA synthesis. Plates were cultured for 48 hours at 37° C., 5% CO2. Eight hours prior to the end of incubation, ^3H-TdR was added to one of the duplicate plates and incubation continued for 8 hours.
The cells were then harvested (trypsinization was required to harvest adherent cells), and isotope uptake was determined as counts per minute (cpm). For viability studies, at the end of the incubation, the cells were removed from the wells and viability checked by the Trypan Blue Exclusion method. Percent viability and percent DNA synthesis in comparison to untreated or vehicle treated cells of each treatment group were calculated.

[2] = tested on: human cancer cells from a wide variety of cell lineages; assay: Apoptosis induction in a battery of tumor cells; assay type: cell-based; details: breast, prostate, leukemia/lymphoid, cervical, ovarian, endometrial, colon, lung cell lines
Method: as §1

A-549 = assay: Bioassay for apoptosis (apoptotic EC50); assay type: cell-based, human; details: unit not given, in µg/mL
Method: as §1

DU-145 = assay: Bioassay for apoptosis (apoptotic EC50); assay type: cell-based, human
Method: as §1

Jurkat = assay: Bioassay for apoptosis (apoptotic EC50); assay type: cell-based, human; details: unit not given, in µg/mL
Method: as §1

HT-29 = assay: Bioassay for apoptosis (apoptotic EC50); assay type: cell-based, human; details: Homo sapiens, unit inferred
Method: as §1

[3] = Homo sapiens, MDA-MB-435, MDA-MB-435, unit inferred, read-out: apoptotic EC50
[4] = MDA-MB-435, Table 1, read-out: EC50 for Apoptosis

SMILES	EC50 (MDA-MB-231)	EC50 (MDA-MB-435; [3])	EC50 (PC-3)	EC50 (LnCaP)	EC50 (RL-95-2)	EC50 (HL-60)	EC50 (ME-180)	EC50 (MCF-7)	EC50 (C-170)	EC50 (HMEC)	EC50 (MCF-10A)	EC50 [1]	EC50 (MDA-MB-435; [4])	growth inhibitory (apoptotic inducing) properties specific for human cancer cells [2]	further results
COC(=O)COc1c(C)c(C)c2c(c1C)CC[C@@](C)(CCC[C@H](C)CCC[C@H](C)CCCC(C)C)O2 [Compound 11, Methyl 2,5,7,8-tetramethyl-(2R-(4R,8R,12-trimethyltridecyl)chroman-6-yloxy)acetate]	> 20 µg/mL	> 20 µg/mL	> 20 µg/mL	> 20 µg/mL	> 20 µg/mL	> 20 µg/mL	> 20 µg/mL	> 20 µg/mL	> 20 µg/mL	> 20 µg/mL	> 20 µg/mL				
CC(C)=CCC/C(C)=C/CC/C(C)=C/CC[C@]1(C)CCc2cc(O)cc(C)c2O1 [δ-tocotrienol, reference compound]												5 µM	5 µM		
Cc1c(C)c2c(c(C)c1OCC(N)=O)CC[C@@](C)(CCC[C@H](C)CCC[C@H](C)CCCC(C)C)O2 [Compound 10, 2,5,7,8-tetramethyl-(2R-(4R,8R,12-trimethyltridecyl)chroman-6-yloxy)acetamide]	> 20 µg/mL	> 20 µg/mL		> 20 µg/mL	> 20 µg/mL	> 20 µg/mL	> 20 µg/mL	> 20 µg/mL	> 20 µg/mL	> 20 µg/mL	> 20 µg/mL				
Cc1c(C)c2c(c(C)c1OCC(=O)N(CC(=O)O)CC(=O)O)CC[C@@](C)(CCC[C@H](C)CCC[C@H](C)CCCC(C)C)O2 [Compound 12]	5 to 10 µg/mL (≈ 8.28 to 16.6 µM)	5 to 10 µg/mL	10 to 20 µg/mL (≈ 16.6 to 33.1 µM)	20 to 30 µg/mL (≈ 33.1 to 49.7 µM)	5 to 10 µg/mL (≈ 8.28 to 16.6 µM)	20 to 30 µg/mL (≈ 33.1 to 49.7 µM)	5 to 10 µg/mL (≈ 8.28 to 16.6 µM)	5 to 10 µg/mL (≈ 8.28 to 16.6 µM)	10 to 20 µg/mL (≈ 16.6 to 33.1 µM)	> 20 µg/mL	> 20 µg/mL			effective	
Cc1cc(OCC(=O)O)cc2c1O[C@](C)(CCC[C@H](C)CCC[C@H](C)CCCC(C)C)CC2 [Compound 9, 2,8-dimethyl-(2R-(4R,8R,12-trimethyltridecyl)chroman-6-yloxy)acetic acid]	5 to 10 µg/mL (≈ 10.9 to 21.7 µM)	5 to 10 µg/mL	5 to 10 µg/mL (≈ 10.9 to 21.7 µM)	5 to 10 µg/mL (≈ 10.9 to 21.7 µM)	5 to 10 µg/mL (≈ 10.9 to 21.7 µM)	10 to 20 µg/mL (≈ 21.7 to 43.4 µM)	5 to 10 µg/mL (≈ 10.9 to 21.7 µM)	10 to 20 µg/mL (≈ 21.7 to 43.4 µM)	> 20 µg/mL	> 20 µg/mL	> 20 µg/mL			effective	
Cc1c(C)c2c(c(C)c1OCC(=O)O)CCC(C)(C)O2 [Compound 14, 2-(2,5,7,8-pentamethylchroman-6-yloxy)acetic acid]	> 20 µg/mL	> 20 µg/mL	> 20 µg/mL	> 20 µg/mL	> 20 µg/mL	> 20 µg/mL	> 20 µg/mL	> 20 µg/mL	> 20 µg/mL	> 20 µg/mL	> 20 µg/mL				
Cc1c(C)c2c(c(C)c1OCCCN)CC[C@@](C)(CCC[C@H](C)CCCC(C)CCCC(C)C)O2.Cl (stereo partly drawn) [Compound 19]														effective	apoptotic EC50 (A-549): 20-30; apoptotic EC50 (MDA-MB-435; MDA-MB-435): 10-20; apoptotic EC50 (DU-145; unit not given, in µg/mL): 5-10; apoptotic EC50 (LnCaP): 5-10; apoptotic EC50 (HL-60): 10-20; apoptotic EC50 (ME-180): 1-5; apoptotic EC50 (Jurkat): 10-20; apoptotic EC50 (MCF-7): 10-20; apoptotic EC50 (C-170): 1-5
CC(C)=CCC/C(C)=C/CC/C(C)=C/CC[C@]1(C)CCc2cc(O)c(C)c(C)c2O1 [γ-tocotrienol, reference compound]												10 µM	10 µM		
CCCCCCC[C@]1(C)CCc2c(C)c(OCC(=O)O)c(C)c(C)c2O1 [Compound 23, 2,5,7,8-tetramethyl-(2R-(heptyl)chroman-6-yloxy)acetic acid]		> 20 µg/mL	> 20 µg/mL					> 20 µg/mL			> 20 µg/mL				EC50 (DU-145; Homo sapiens, unit inferred): > 20 µg/mL; EC50 (HT-29): > 20 µg/mL
Cc1c(O)cc2c(c1C)O[C@](C)(CCC[C@H](C)CCC[C@H](C)CCCC(C)C)CC2 [γ-tocopherol, reference compound]												> 400 µM	300 µM		
Cc1cc(O)cc2c1O[C@](C)(CCC[C@H](C)CCC[C@H](C)CCCC(C)C)CC2 [δ-tocopherol, reference compound]												150 µM	100 µM		
Cc1c(C)c2c(c(C)c1OCCCC(=O)O)CC[C@@](C)(CCC[C@H](C)CCC[C@H](C)CCCC(C)C)O2 [Compound 3, 2,5,7,8-tetramethyl-(2R-(4R,8R,12-trimethyltridecyl)chroman-6-yloxy) butyric acid]														effective	apoptotic EC50 (MDA-MB-231; MDA-MB-231, unit not given, in µg/mL): 5-10; apoptotic EC50 (MDA-MB-435; MDA-MB-435): 5-10; apoptotic EC50 (PC-3; PC-3, unit not given, in µg/mL): 5-10; apoptotic EC50 (LnCaP): 5-10; apoptotic EC50 (RL-95-2; RL-95-2, unit not given, in µg/mL): 10-20; apoptotic EC50 (HL-60): 10-20; apoptotic EC50 (ME-180): 10-20; apoptotic EC50 (MCF-7): 20-30; apoptotic EC50 (C-170): 10-20
Cc1c(OCC(=O)O)cc2c(c1C)O[C@](C)(CCC[C@H](C)CCC[C@H](C)CCCC(C)C)CC2 [Compound 8, 2,7,8-trimethyl-(2R-(4R,8R,12-trimethyltridecyl)chroman-6-yloxy)acetic acid]	5 to 10 µg/mL (≈ 10.5 to 21.1 µM)	5 to 10 µg/mL	5 to 10 µg/mL (≈ 10.5 to 21.1 µM)	5 to 10 µg/mL (≈ 10.5 to 21.1 µM)	1 to 5 µg/mL (≈ 2.11 to 10.5 µM)	10 to 20 µg/mL (≈ 21.1 to 42.1 µM)	5 to 10 µg/mL (≈ 10.5 to 21.1 µM)	10 to 20 µg/mL (≈ 21.1 to 42.1 µM)	10 to 20 µg/mL (≈ 21.1 to 42.1 µM)	> 20 µg/mL	> 20 µg/mL			effective	
